The subject of assay [1] is serum calcium concentration. Put plainly: Biological assay of calcitonin analogs in vivo: reduction of serum calcium concentration, 2x2 parallel line assay. Set-up: species or system Rats. The method, then: The biological potency of des-2-serine, 3-asparagine-salmon calcitonin was determined by comparing the reduction of serum calcium concentration which followed administration by graded doses of des-Ser^2, […] -SCT and synthetic salmon calcitonin standard. Rats were divided into four groups of seven animals, and each group was assigned at random to a dose of standard or test solution. Low and high doses were chosen from the linear portion of the dose-response curve. For the salmon calcitonin standard, the values were 0.7 and 2.1 ng. peptide/100 g. body weight (BW). This dose approximates 3 and 9 MU/100 g. BW. Peptides were given by subcutaneous injection (0.2 ml/100 g. BW) and blood was withdrawn 1 hour later for serum calcium determination. Sera are processed and analyzed within two hours of collection. […]. Results were analyzed by a 2×2 parallel line assay [Gaddum, J. H. J. Pharm. Pharmacol., 6, 345 (1953)]. The standard salmon calcitonin used was independently determined to contain greater than 4,000 IU/mg. des-Ser^2, Asn^3 -SCT assayed at 4350 IU/mg.

The conditions of assay [2]: literature value, Monikawa et al.; cited from earlier work.

Positions of bridges follow the written chain, without caps; N, C: chain ends. Residues, ends and D or L forms follow the SMILES beside them.

For `CC(C)C[C@H](NC(=O)[C@H](CCCCN)NC(=O)CNC(=O)[C@H](CC(C)C)NC(=O)[C@@H](NC(=O)[C@@H]1CSSC[C@H](N)C(=O)N[C@@H](CC(C)C)C(=O)N[C@@H](CO)C(=O)N[C@@H]([C@@H](C)O)C(=O)N1)C(C)C)C(=O)N[C@@H](CO)C(=O)N[C@@H](CCC(N)=O)C(=O)N[C@@H](CCC(=O)O)C(=O)N[C@@H](CC(C)C)C(=O)N[C@@H](Cc1c[nH]cn1)C(=O)N[C@@H](CCCCN)C(=O)N[C@@H](CC(C)C)C(=O)N[C@@H](CCC(N)=O)C(=O)N[C@H](C(=O)N[C@@H](Cc1ccc(O)cc1)C(=O)N1CCC[C@H]1C(=O)N[C@@H](CCCNC(=N)N)C(=O)N[C@H](C(=O)N[C@@H](CC(N)=O)C(=O)N[C@H](C(=O)NCC(=O)N[C@@H](CO)C(=O)NCC(=O)N[C@H](C(=O)N1CCC[C@H]1C(N)=O)[C@@H](C)O)[C@@H](C)O)[C@@H](C)O)[C@@H](C)O` [des-Ser^2, Asn^3 -SCT, des-2-serine, 3-asparagine-salmon calcitonin] (H-CLSTCVLGKLSQELHKLQTYPRTNTGSGTP-NH2; disulfide 1-5), the “biological potency (reduction of serum calcium concentration)” value in assay [1] (rats, subcutaneous injection, blood withdrawn 1 hour later, vs synthetic salmon calcitonin standard) is given as 4350 IU/mg.
With `CC(C)C[C@H](NC(=O)[C@H](CCCCN)NC(=O)CNC(=O)[C@H](CC(C)C)NC(=O)[C@@H](NC(=O)[C@@H]1CSSC[C@H](N)C(=O)N[C@@H](CO)C(=O)N[C@@H](CC(N)=O)C(=O)N[C@@H](CC(C)C)C(=O)N[C@@H](CO)C(=O)N[C@@H]([C@@H](C)O)C(=O)N1)C(C)C)C(=O)N[C@@H](CO)C(=O)N[C@@H](CCC(N)=O)C(=O)N[C@@H](CCC(=O)O)C(=O)N[C@@H](CC(C)C)C(=O)N[C@@H](Cc1c[nH]cn1)C(=O)N[C@@H](CCCCN)C(=O)N[C@@H](CC(C)C)C(=O)N[C@@H](CCC(N)=O)C(=O)N[C@H](C(=O)N[C@@H](Cc1ccc(O)cc1)C(=O)N1CCC[C@H]1C(=O)N[C@@H](CCCNC(=N)N)C(=O)N[C@H](C(=O)N[C@@H](CC(N)=O)C(=O)N[C@H](C(=O)NCC(=O)N[C@@H](CO)C(=O)NCC(=O)N[C@H](C(=O)N1CCC[C@H]1C(N)=O)[C@@H](C)O)[C@@H](C)O)[C@@H](C)O)[C@@H](C)O` [standard salmon calcitonin, Salmon calcitonin], in assay [1] (standard used in the assay, independently determined), the “potency of the standard salmon calcitonin, independently determined” value is listed as “greater than 4,000 IU/mg”.
As for “(1,7-α-L-amino-suberic acid)eel calcitonin”, the hypocalcemic potency entry in assay [2] is “about 3400 IU/mg”.
Regarding “eel calcitonin [synthetic eel calcitonin]”, the hypocalcemic potency entry in assay [2] is reported as “around 4300 IU/mg”.
